Test results taken from US8802656B2, “Purified phospholipid-non-steroidal anti-inflammatory drug associated compositions and methods for preparing and using same” (priority 2004, dated 2014).
Entries after “also recorded” stand apart in the source; their conditions may differ.

Test system: rats injected with CFA in a hind paw
Test: Pain pressure threshold (modified Randall-Selitto) in rats with CFA-inflamed hind paw, acute oral dosing
Type: in vivo, rat
Conditions: for pain pressure threshold: ibuprofen 20 or 50 mg/kg, indomethacin 1 mg/kg intragastric, two hours after dosing, CFA 4 days before, FIG. 4
Description: In the second in vivo experiment, we compared the analgesic activity of the acetone preparation of PC-ibuprofen to that of ibuprofen alone (at doses of 20 and 50 mg/kg) in rats and compared the response to a sub-threshod dose of indomethacin (1 mg/kg). The measurements were made on rats, in which 0.1 mL of Complete Freund's Adjuvant (CFA) was subcutaneously injected into the dorsal surface of the left hindpaw, 4 days previously to increase the affected paw's sensitivity to pressure. […] Myeloperoxidase Activity In this experiment, we evaluated the analgesic activity of the test material using a rodent model system previously described in detail. This was accomplished by initially inducing inflammation of a hind paw of male Sprague Dawley rats by subcutaneously injecting 0.1 mL of Complete Freund's Adjuvant (Sigma Chemical Co. St. Louis, Mo.) into the doral surface of the left hind paw. […] For comparison, we also intragastrically administered a group of rats with a sub-threshold dose (1 mg/kg) of the NSAID, indomethacin, that was suspended in 1% methyl cellulose.

For `CC(=O)Oc1ccccc1C(=O)O` [ASA, Aspirin], the pain threshold (CFA induced inflammation, Randall Siletto procedure, ASA formulations, FIG. 13) was “performed similarly”.
With `CC(C)Cc1ccc(C(C)C(=O)O)cc1` (stereo not shown) [ibuprofen] the pain pressure threshold (listed as generic ibuprofen) was “dose-dependent increase in pain pressure threshold” and the pain pressure threshold (listed as unmodified ibuprofen) was “apparent dose-dependent increase in pain pressure threshold”.
In the case of `COc1ccc2c(c1)c(CC(=O)O)c(C)n2C(=O)c1ccc(Cl)cc1` [indomethacin], the pain pressure threshold is reported as “no effect; also recorded: non-significant response”.
